Test results from patent US10357500B2, “Neuro-protective agents and uses thereof” (Guangzhou Cellprotek Pharmaceutical Co., Ltd., priority 2014, dated 2019).
Entries after “also recorded” stand apart in the source; their conditions may differ.

Columns and labels:
Type in all cases: in vivo
[1] = tested on: Macaca fascicularis in acute hypobaric hypoxia; test: Neurological score, acute hypobaric hypoxia model (simulated 7,500 m); settings: for neurological function / neurological score (in words): acute hypobaric hypoxia, simulated 7,500 meters, vs solvent control
Excerpt: (§1) 17 healthy male Macaca fascicularis, 6 to 6.5 years-old, weighted 6.8-7.5 kg, were used. The use of laboratory animals is approved by Committee of laboratory animal management and use and experimental animal ethics committee. The experiment scheme complies with rules concerning animal protection, animal welfare and ethical principles. The 17 Macaca fascicularis were grouped randomly into 3 groups (Table 1).
(§2) The low pressure chamber group is a platform used to simulate low temperature and low pressure plateau environment. The system can be manipulated to simulate a low pressure environment having any altitude below 10000 meters and any temperature above −30° C. The ascending velocity: 3 m/second (0 to 6000 m); descending velocity: 2 m/second (6000 m to 7500 m); constant temperature: 22° C.; average air flow velocity: 150 m^3/h.
(§3) (1) An altitude of 7,500 meters was simulated by manipulation of the low-pressure chamber to cause acute hypoxia in Macaca fascicularis.
(§4) The Macaca fascicularis raised in the laboratory animal housing were labeled and transferred to the low-pressure chamber. The Macaca fascicularis was fed for 1 more day in the chamber in order to make them adapt to the experimental environment. The pressure in the low-pressure chamber was adjusted to simulate altitudes of 3,000, 4,500, and 6,000 meters, staying at each altitude for 30 minutes, followed by simulation of an altitude of […] for 24 hours. The animals were then treated with drugs individually at pre-determined doses. After treatment at 7,500 meters for 48 hours, the altitude was decreased to 6,000 meters at a velocity of 3 m/s. The animals were subject to ketamine anesthesia, sacrificed, dissected and subject to sampling. The samples were fixed. Animals grouped in plain controls were raised in an animal housing at an altitude of 350 m before assessment and sacrifice.
(§5) (2) The animals in 5α-androstane-3β,5,6β-triol treatment group were administered through intravenous injection 10 mL of 5α-androstane-3β,5,6β-triol solution in glucose saline at a dosage of 10 mg/kg before simulation, after 30 min at 3,000 meters, and after 30 min at 4,500 meters, respectively. The animals in solvent control group were given 10 mL of glucose saline through intravenous injection.
(3) The animals in 5α-androstane-3β,5,6β-triol treatment group were administered by skeletal muscle injection at 5 different points with 5α-androstane-3β,5,6β-triol sustained-release formulation at a dosage of 30 mg/kg after 30 min at 6,000 meters. Acute plateau hypoxia models were administered 10 mL of glucose saline through intravenous injection. […]
Animals were stayed at simulated altitude of 7,500 meters for 24 hours before descending to 6,000 meters at a speed of 3 m/s. The neurological scores were evaluated and recorded according to a reported method (Zhu et al, An improved method of neurological score for non-human primates, Chinese Journal of Comparative Medicine, 2011, 21 (9): 58-62). The neurological score was evaluated and recorded by two trained observers who were neither aware of the grouping nor involved in the drug administering. […]
The results were indicated as mean±standard deviation, and statistically analyzed by software SigmaPlot. […]

[2] = tested on: Macaca fascicularis in acute hypobaric hypoxia; test: Cerebral water content of left hemisphere, acute hypobaric hypoxia model; settings: for increase of cerebral water content (in words): acute hypobaric hypoxia, simulated 7,500 meters, vs solvent control; for Cerebral Water Content (%): left hemisphere, 48 hours at simulated 7,500 meters, 10 mg/kg i.v. and 30 mg/kg i.m., repeated after 24 hours
Excerpt: as §1, §2, §3, §4, §5
(§6) (3) The animals in 5α-androstane-3β,5,6β-triol treatment group were administered by skeletal muscle injection at 5 different points with 5α-androstane-3β,5,6β-triol sustained-release formulation at a dosage of 30 mg/kg after 30 min at 6,000 meters. Acute plateau hypoxia models were administered 10 mL of glucose saline through intravenous injection.
(4) The animals in 5α-androstane-3β,5,6β-triol treatment group were administered through intravenous injection 10 mL of 5α-androstane-3β,5,6β-triol injection in glucose saline at a dosage of 10 mg/kg after 24 hours at 7,500 meters, and further by skeletal muscle injection at 5 different points with 5α-androstane-3β,5,6β-triol sustained-release formulation at a dosage of 30 mg/kg. […]
Cerebral water content was measured according to a reported method (Patir H, Sarada S K, Singh S, Mathew T, Singh B, Bansal A. Quercetin as a prophylactic measure against high altitude cerebral edema. Free Radic Biol Med 2012 Aug. 15; 53(4):659-68). […] Brains of the animals were rapidly taken out and the wet weights of the left hemispheres were measured. The left hemispheres were then placed in a drying oven at 60° C., and were measured their weights daily at a fixed time until no weight change was observed. […]

[3] = tested on: Macaca fascicularis in acute hypobaric hypoxia; test: Transmission electron microscopy of the cortical tissue of the frontal lobe (vasogenic edema); settings: frontal lobe cortex, transmission electron microscope, vs solvent control
Excerpt: as §1, §2, §3, §4, §5, §6
(4) The animals in 5α-androstane-3β,5,6β-triol treatment group were administered through intravenous injection 10 mL of 5α-androstane-3β,5,6β-triol injection in glucose saline at a dosage of 10 mg/kg after 24 hours at 7,500 meters, and further by skeletal muscle injection at 5 different points with 5α-androstane-3β,5,6β-triol sustained-release formulation at a dosage of 30 mg/kg. Acute plateau hypoxia models were administered 10 mL of glucose saline through intravenous injection.
The cortical tissues of the frontal lobes of the animals were taken out and cut to provide brain pieces of 1 mm^3, which were fixed in a stationary liquid of 2.5% glutaraldehyde to prepare ultrathin sections. The morphology of neurons and the structure of blood vessels were observed by transmission electron microscopy.

[4] = tested on: Macaca fascicularis in acute hypobaric hypoxia; test: HE staining of the cortical tissue of the frontal lobe (neuronal vacuolar degeneration); settings: frontal lobe cortex, vs solvent control
Excerpt: as §1, §2, §3
The Macaca fascicularis raised in the laboratory animal housing were labeled and transferred to the low-pressure chamber. The Macaca fascicularis was fed for 1 more day in the chamber in order to make them adapt to the experimental environment. […] The animals were then treated with drugs individually at pre-determined doses. […]

SMILES: CCC=C1CC[C@H]2[C@@H]3C[C@@H](O)[C@@]4(O)C[C@@H](O)CC[C@]4(C)[C@H]3CC[C@]12C [Compound II, 17-propylidene-androstane-3β,5α,6β-triol]
- neurological function / neurological score (in words) [1]: effectively protected
- increase of cerebral water content (in words) [2]: inhibited increase of the cerebral water content
- vasogenic edema / Virchow-Robin space of cortical capillary vessels (in words) [3]: no significant angioedema

SMILES: CC(C)CCC[C@@H](C)[C@H]1CC[C@H]2[C@@H]3C[C@@H](O)[C@@]4(O)C[C@@H](O)CC[C@]4(C)[C@H]3CC[C@]12C [Compound I, cholestane-3β,5α,6β-triol]
- vasogenic edema / Virchow-Robin space of cortical capillary vessels (in words) [3]: effectively reduce
- neuronal vacuolar degeneration (in words) [4]: effectively reduce

SMILES: CC(C)C1CC[C@H]2[C@@H]3C[C@@H](O)[C@@]4(O)C[C@@H](O)CC[C@]4(C)[C@H]3CC[C@]12C (stereo partly drawn) [Compound III, 17-isopropyl-androstane-3β,5α,6β-triol]
- neurological function / neurological score (in words) [1]: effectively protected
- increase of cerebral water content (in words) [2]: inhibited increase of the cerebral water content
- vasogenic edema / Virchow-Robin space of cortical capillary vessels (in words) [3]: no significant angioedema

SMILES: C[C@@]12CCC[C@H]1[C@@H]1C[C@@H](O)[C@@]3(O)C[C@@H](O)CC[C@]3(C)[C@H]1CC2 [5α-androstane-3β,5,6β-triol]
- neurological score ([1]; 24 hours at simulated 7,500 meters, 10 mg/kg i.v. x3 and 30 mg/kg i.m. sustained-release, solvent control 31.6±4.2, mean±SD): 20.5±5.7
- neurological function / neurological score (in words) [1]: significantly improved
- Cerebral Water Content (%) ([2]; plain control 76.155, solvent control 76.714): 76.283 ± 0.235 %
- Cerebral Water Content (%) ([2]; plain control 76.155, solvent control 76.714, listed as 5α-androstane-3β3,5,6β-triol): 76.283%
- vasogenic edema / Virchow-Robin space of cortical capillary vessels (in words) [3]: reduced; also recorded: no significant vasogenic edema occurred
- neuronal vacuolar degeneration (in words) [4]: reduced neuronal vacuolar degeneration

SMILES: CCCCC1CC[C@H]2[C@@H]3C[C@@H](O)[C@@]4(O)C[C@@H](O)CC[C@]4(C)[C@H]3CC[C@]12C (stereo partly drawn) [Compound IV, 17-butyl-androstane-3β,5α,6β-triol]
- neurological function / neurological score (in words) [1]: effectively protected
- increase of cerebral water content (in words) [2]: inhibited increase of the cerebral water content
- vasogenic edema / Virchow-Robin space of cortical capillary vessels (in words) [3]: no significant angioedema
